Laboratory results as given in PubChem BioAssay AID2060904 (Molecular Pharmacology Branch, DTP, NCI, 2025).
pIC50: −log10 of the molar value.

Test system: 349418-098-R-PDC complex spheroid viability
Experiment: Anticancer human tumor 349418-098-R-PDC patient-derived lung adenocarcinoma cell line growth inhibition [RAS]
Settings: for pIC50: curve of first compound; for viability, T/C: stronger effect = lower value
Procedure, shortened: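 Multi-cell-type spheroids: tumor cells plus HUVEC endothelial cells and mesenchymal stem cells. RAS-pathway inhibitors were combined with targeted agents, each dosed in half-log steps down from clinical Cmax, or from 10 microM when Cmax was unknown.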

[1] = second compound 0.000949 µM, first compound 0.0316 µM
[2] = second compound 0.000949 µM, first compound 0.1 µM
[3] = second compound 0.000949 µM, first compound 0.316 µM
[4] = second compound 0.000949 µM, first compound 1 µM
[5] = second compound 0.000949 µM, first compound 3.16 µM
[6] = second compound 0.000949 µM, first compound 10 µM
[7] = second compound 0.003 µM, first compound 0.0316 µM
[8] = second compound 0.003 µM, first compound 0.1 µM
[9] = second compound 0.003 µM, first compound 0.316 µM
[10] = second compound 0.003 µM, first compound 1 µM
[11] = second compound 0.003 µM, first compound 3.16 µM
[12] = second compound 0.003 µM, first compound 10 µM
[13] = second compound 0.00949 µM, first compound 0.0316 µM
[14] = second compound 0.00949 µM, first compound 0.1 µM
[15] = second compound 0.00949 µM, first compound 0.316 µM
[16] = second compound 0.00949 µM, first compound 1 µM
[17] = second compound 0.00949 µM, first compound 3.16 µM
[18] = second compound 0.00949 µM, first compound 10 µM
[19] = second compound 0.03 µM, first compound 0.0316 µM
[20] = second compound 0.03 µM, first compound 0.1 µM
[21] = second compound 0.03 µM, first compound 0.316 µM
[22] = second compound 0.03 µM, first compound 1 µM
[23] = second compound 0.03 µM, first compound 3.16 µM
[24] = second compound 0.03 µM, first compound 10 µM
[25] = second compound 0.0949 µM, first compound 0.0316 µM
[26] = second compound 0.0949 µM, first compound 0.1 µM
[27] = second compound 0.0949 µM, first compound 0.316 µM
[28] = second compound 0.0949 µM, first compound 1 µM
[29] = second compound 0.0949 µM, first compound 3.16 µM
[30] = second compound 0.0949 µM, first compound 10 µM
[31] = second compound 0.3 µM, first compound 0.0316 µM
[32] = second compound 0.3 µM, first compound 0.1 µM
[33] = second compound 0.3 µM, first compound 0.316 µM
[34] = second compound 0.3 µM, first compound 1 µM
[35] = second compound 0.3 µM, first compound 3.16 µM
[36] = second compound 0.3 µM, first compound 10 µM
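Note: spheroids exposed to compound for seven days before viability readout.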

`CC(C)NCC(C(=O)N1CCN(c2ncnc3c2C(C)CC3O)CC1)c1ccc(Cl)cc1` (stereo unspecified) + CCn1c(-c2cccnc2C(C)OC)c2c3cc(ccc31)N1CCOC(CC(NC(=O)C(C(C)C)N(C)C(=O)C3(F)CCN(C(=O)C#CC(C)(C)N(C)C)CC3)C(=O)N3CCCC(N3)C(=O)OCC(C)(C)C2)C1 showed a pIC50 (second compound 0.000949 µM) of 6.22, a pIC50 (second compound 0.003 µM) of 6.45 and a pIC50 (second compound 0.00949 µM) of 6.30. It also gave a pIC50 (second compound 0.03 µM) of 6.29, a pIC50 (second compound 0.0949 µM) of 6.28 and a pIC50 (second compound 0.3 µM) of 6.45. For the same compound, the viability, T/C [1] was 83.5%, the viability, T/C [2] was 88.7% and the viability, T/C [3] was 76%. The viability, T/C [4] was 29.1%, the viability, T/C [5] was 24.2% and the viability, T/C [6] was 10.7%. It also gave a viability, T/C [7] of 103%, a viability, T/C [8] of 60.9% and a viability, T/C [9] of 51.6%. It also gave a viability, T/C [10] of 48.1%, a viability, T/C [11] of 18.7% and a viability, T/C [12] of 10.2%. The viability, T/C [13] was 101%, the viability, T/C [14] was 85.7% and the viability, T/C [15] was 58.9%. The viability, T/C [16] was 35%, the viability, T/C [17] was 19.6% and the viability, T/C [18] was 8.77%. The viability, T/C [19] was 97.6%, the viability, T/C [20] was 86.8% and the viability, T/C [21] was 56.8%. The viability, T/C [22] was 33.3%, the viability, T/C [23] was 28.5% and the viability, T/C [24] was 8.92%. The viability, T/C [25] was 83.3%, the viability, T/C [26] was 75.5% and the viability, T/C [27] was 62.9%. The viability, T/C [28] was 32.5%, the viability, T/C [29] was 24.2% and the viability, T/C [30] was 8.81%. It also gave a viability, T/C [31] of 94.9%, a viability, T/C [32] of 76.7% and a viability, T/C [33] of 46.5%. The viability, T/C [34] was 34.3%, the viability, T/C [35] was 27.5% and the viability, T/C [36] was 11%.

With `CC(C)n1nc(-c2ccc3oc(N)nc3c2)c2c(N)ncnc21` + CCn1c(-c2cccnc2C(C)OC)c2c3cc(ccc31)N1CCOC(CC(NC(=O)C(C(C)C)N(C)C(=O)C3(F)CCN(C(=O)C#CC(C)(C)N(C)C)CC3)C(=O)N3CCCC(N3)C(=O)OCC(C)(C)C2)C1 the pIC50 (second compound 0.000949 µM) was 8.89, the pIC50 (second compound 0.003 µM) was 8.68 and the pIC50 (second compound 0.00949 µM) was 8.59. It also gave a pIC50 (second compound 0.03 µM) of 8.54, a pIC50 (second compound 0.0949 µM) of 8.85 and a pIC50 (second compound 0.3 µM) of 8.83. The viability, T/C (second compound 0.000949 µM, first compound 0.000316 µM) was 97.3%, the viability, T/C (second compound 0.000949 µM, first compound 0.001 µM) was 54.3% and the viability, T/C (second compound 0.000949 µM, first compound 0.00316 µM) was 33.3%. It also gave a viability, T/C (second compound 0.000949 µM, first compound 0.01 µM) of 10.8%, a viability, T/C [1] of 6.42% and a viability, T/C [2] of 5.48%. It also gave a viability, T/C (second compound 0.003 µM, first compound 0.000316 µM) of 91.7%, a viability, T/C (second compound 0.003 µM, first compound 0.001 µM) of 70.3% and a viability, T/C (second compound 0.003 µM, first compound 0.00316 µM) of 39.7%. For the same compound, the viability, T/C (second compound 0.003 µM, first compound 0.01 µM) was 12.8%, the viability, T/C [7] was 6.14% and the viability, T/C [8] was 5.04%. For the same compound, the viability, T/C (second compound 0.00949 µM, first compound 0.000316 µM) was 91.2%, the viability, T/C (second compound 0.00949 µM, first compound 0.001 µM) was 82.2% and the viability, T/C (second compound 0.00949 µM, first compound 0.00316 µM) was 42.7%. It also gave a viability, T/C (second compound 0.00949 µM, first compound 0.01 µM) of 13.9%, a viability, T/C [13] of 6.63% and a viability, T/C [14] of 5.25%. It also gave a viability, T/C (second compound 0.03 µM, first compound 0.000316 µM) of 98.7%, a viability, T/C (second compound 0.03 µM, first compound 0.001 µM) of 81.4% and a viability, T/C (second compound 0.03 µM, first compound 0.00316 µM) of 47.7%. For the same compound, the viability, T/C (second compound 0.03 µM, first compound 0.01 µM) was 16.8%, the viability, T/C [19] was 6.13% and the viability, T/C [20] was 5.01%. The viability, T/C (second compound 0.0949 µM, first compound 0.000316 µM) was 90.4%, the viability, T/C (second compound 0.0949 µM, first compound 0.001 µM) was 55.9% and the viability, T/C (second compound 0.0949 µM, first compound 0.00316 µM) was 35.7%. For the same compound, the viability, T/C (second compound 0.0949 µM, first compound 0.01 µM) was 13.3%, the viability, T/C [25] was 7.14% and the viability, T/C [26] was 4.64%. It also gave a viability, T/C (second compound 0.3 µM, first compound 0.000316 µM) of 67.4%, a viability, T/C (second compound 0.3 µM, first compound 0.001 µM) of 64.7% and a viability, T/C (second compound 0.3 µM, first compound 0.00316 µM) of 22%. The viability, T/C (second compound 0.3 µM, first compound 0.01 µM) was 10.9%, the viability, T/C [31] was 6.85% and the viability, T/C [32] was 4.69%.

With `C[C@@H](NC(=O)c1ncnc(N)c1Cl)c1ncc(C(=O)Nc2cc(C(F)(F)F)c(Cl)cn2)s1` + CCn1c(-c2cccnc2C(C)OC)c2c3cc(ccc31)N1CCOC(CC(NC(=O)C(C(C)C)N(C)C(=O)C3(F)CCN(C(=O)C#CC(C)(C)N(C)C)CC3)C(=O)N3CCCC(N3)C(=O)OCC(C)(C)C2)C1 the pIC50 (second compound 0.000949 µM) was 5.89, the pIC50 (second compound 0.003 µM) was 5.82 and the pIC50 (second compound 0.00949 µM) was 5.84. The pIC50 (second compound 0.03 µM) was 5.80, the pIC50 (second compound 0.0949 µM) was 5.72 and the pIC50 (second compound 0.3 µM) was 5.91. The viability, T/C [1] was 113%, the viability, T/C [2] was 106% and the viability, T/C [3] was 90.3%. For the same compound, the viability, T/C [4] was 55.4%, the viability, T/C [5] was 29.4% and the viability, T/C [6] was 20.2%. It also gave a viability, T/C [7] of 117%, a viability, T/C [8] of 97.5% and a viability, T/C [9] of 88.3%. The viability, T/C [10] was 58.2%, the viability, T/C [11] was 32.5% and the viability, T/C [12] was 19.4%. For the same compound, the viability, T/C [13] was 94.7%, the viability, T/C [14] was 92.5% and the viability, T/C [15] was 73.9%. The viability, T/C [16] was 47.5%, the viability, T/C [17] was 45.1% and the viability, T/C [18] was 18.4%. For the same compound, the viability, T/C [19] was 114%, the viability, T/C [20] was 84.2% and the viability, T/C [21] was 82%. The viability, T/C [22] was 61.4%, the viability, T/C [23] was 33.7% and the viability, T/C [24] was 19.5%. The viability, T/C [25] was 97.2%, the viability, T/C [26] was 96.5% and the viability, T/C [27] was 89.3%. It also gave a viability, T/C [28] of 72.4%, a viability, T/C [29] of 32.5% and a viability, T/C [30] of 16.8%. For the same compound, the viability, T/C [31] was 107%, the viability, T/C [32] was 81.2% and the viability, T/C [33] was 66.5%. The viability, T/C [34] was 57.4%, the viability, T/C [35] was 40.9% and the viability, T/C [36] was 14.8%.
